Reference: patent publication US8636978B2, “Cyclized NGR peptide compounds, compositions, and methods of their use” (The United States of America, as Represented by the …, priority 2008, dated 2014)
Residues, ends and D or L forms follow the SMILES beside them. No end group written: not given here. *: point of attachment. OregonGreen488(6-carbonyl) = O=C1OC2(c3cc(F)c(O)cc3Oc3cc(O)c(F)cc32)c2cc(C(=O)*)ccc21

What was measured:
HT-1080 (CD13+) cells = experiment: Cell binding by epifluorescent microscopy, CD13-positive cells; type: cell-based, human; conditions: 37° C.
Protocol: (§1) Human fibrosarcoma (HT-1080) and human adenocarcinoma (MCF7) cells were purchased from American Type Culture Collection (ATCC, Manassas, Va.). HT-1080 cells were grown in MEME (ATCC) supplemented with 10% fetal bovine serum (ATCC), and MCF7 cells were grown in the same culture medium with the addition of 0.01 mg/mL bovine insulin (Sigma-Aldrich, St. Louis, Mo.). Both cell lines were maintained in a 5% CO2 incubator at 37° C. Anti-CD13 monoclonal antibody (WM15, Alexa Fluor 488-conjugated) was obtained from AbD Serotec (Raleigh, N.C.).
(§2) Cellular binding of cK(OG)NGRE to the CD13/APN marker was assessed by plating HT-1080 (CD13+) and MCF7 (CD13−) cells in eight-chambered slides (LabTekII, Nunc, Rochester, N.Y.) at a concentration of 15,000 cells/well. After 24 h, cells were washed once with phosphate-buffered saline (PBS) and incubated in complete culture media at 37° C. for 30 min with either cK(OG)NGRE (20 μM) or the anti-CD13 antibody (final concentration 2.5 μg/mL). Slides were washed twice with PBS for 5 min, fixed in 4% paraformaldehyde for 20 min, and mounted with Prolong Gold antifade reagent with DAPI (Invitrogen, Carlsbad, Calif.) and imaged with an epifluorescent microscope (Zeiss Axio Imager.M1, Thornwood, N.Y.) after 24 h. […]

MCF7 (CD13−) cells = experiment: Cell binding by epifluorescent microscopy, CD13-negative cells; type: cell-based, human; conditions: cK(OG)NGRE 20 μM or anti-CD13 antibody 2.5 μg/mL, 37° C., 30 min
Protocol: as §1, §2

[1] = tested on: CD13-positive HT-1080 cells

For `N=C(N)NCCC[C@@H]1NC(=O)CNC(=O)[C@H](CC(N)=O)NC(=O)[C@H](CCCCNC(=O)c2ccc3c(c2)C2(OC3=O)c3cc(F)c(O)cc3Oc3cc(O)c(F)cc32)NC(=O)[C@H](CCC(N)=O)NC1=O` [cK(OG)NGRE] (cyclo(K(OregonGreen488(6-carbonyl))NGRQ)), the “in vitro binding to HT-1080 cells (fluorescence micrographs)” value (HT-1080 (CD13+) cells; cK(OG)NGRE 20 μM or anti-CD13 antibody 2.5 μg/mL, 30 min) was “clearly demonstrated binding”, the “localization of fluorescence in HT-1080 cells” value (HT-1080 (CD13+) cells; epifluorescent microscopy, 30 min incubation) was “internalization of the peptide” and the “in vitro binding to MCF7 cells (fluorescence micrographs)” value (MCF7 (CD13−) cells) was “minimal binding”. For the same compound, the EC50 [1] was 61 µM.
Work on KNGRE [reference compound] yielded an EC50 [1] of 220 µM.
